US7842808B2, “Anti-migraine spirocycles” (Bristol-Myers Squibb Company, priority 2002, dated 2010)

Molecular target: T1, CGRP receptor (SK-N-MC cell membranes) (Homo sapiens, UniProt O60894+Q16602)
T1 construct: endogenous in cells; host or cells: SK-N-MC cells (membrane homogenate)
Assay: CGRP Binding Assay ([125I]-CGRP radioligand binding, SK-N-MC homogenate)
Details: displacement of [125I]-CGRP, SK-N-MC homogenate; read-out: CGRP binding IC50
Description: Tissue Culture. SK-N-MC cells were grown at 37° C. in 5% CO2 as a monolayer in medium consisting of MEM with Earle's salts and L-glutamine (Gibco) supplemented with 10% fetal bovine serum (Gibco).
Cell Pellets. […] The cells were transferred from plates to polypropylene tubes (16×100 mm) and homogenized using a polytron. Homogenates were centrifuged at 32,000×g for 30 min. The pellets were resuspended in cold hypotonic lysis buffer with 0.1% mammalian protease inhibitor cocktail (Sigma) and assayed for protein concentration. The SK-N-MC homogenate was then aliquoted and stored at −80° C. until needed.
Radioligand Binding Assay. The compounds of invention were solubilized and carried through serial dilutions using 100% DMSO. Aliquots from the compound serial dilutions were further diluted 25 fold into assay buffer (50 mM Tris-Cl pH 7.5, 5 mM MgCl2, 0.005% Triton X-100) and transferred (volume 50 μl) into 96 well assay plates. […] SK-N-MC pellets were thawed, diluted in assay buffer with fresh 0.1% mammalian protease inhibitor cocktail (Sigma), and homogenized again. SK-N-MC homogenate (5 μg/well) was added in a volume of 100 μl. The assay plates were then incubated at room temperature for 2 h. Assays were stopped by addition of excess cold wash buffer (20 mM Tris-Cl pH 7.5, 0.1% BSA) immediately followed by filtration over glass fiber filters (Whatman GF/B) previously soaked in 0.5% PEI. Non-specific binding was defined with 1 μM beta-CGRP. Protein bound radioactivity was determined using a gamma or scintillation counter.

T1 sequence (Q16602 23-461): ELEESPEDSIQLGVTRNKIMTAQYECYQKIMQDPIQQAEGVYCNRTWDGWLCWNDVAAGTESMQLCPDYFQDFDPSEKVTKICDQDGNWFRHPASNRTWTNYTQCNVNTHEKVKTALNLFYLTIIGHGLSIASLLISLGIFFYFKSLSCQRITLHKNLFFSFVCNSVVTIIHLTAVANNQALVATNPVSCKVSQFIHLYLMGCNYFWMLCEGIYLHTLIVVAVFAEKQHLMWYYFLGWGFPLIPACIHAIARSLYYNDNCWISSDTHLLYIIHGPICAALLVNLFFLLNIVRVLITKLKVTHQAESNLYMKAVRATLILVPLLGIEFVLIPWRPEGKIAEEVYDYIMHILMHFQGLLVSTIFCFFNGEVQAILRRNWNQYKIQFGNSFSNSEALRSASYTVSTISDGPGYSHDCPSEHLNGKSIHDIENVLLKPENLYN
T1 sequence (O60894 27-148): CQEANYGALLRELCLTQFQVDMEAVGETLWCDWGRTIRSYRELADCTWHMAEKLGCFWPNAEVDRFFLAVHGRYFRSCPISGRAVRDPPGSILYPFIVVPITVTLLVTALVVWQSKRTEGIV

Row | Structure (SMILES) | IC50
1 | CCOC(=O)C(C)NC(=O)N[C@@H](CC(=O)N1CCC(N2Cc3ccccc3NC2=O)CC1)C(=O)N1CCC(N2CCCCC2)CC1 (some centres unmarked) [Example 170] | 100 to 1000 nM
2 | CCCCC(CC)CN1CCN(C(=O)C(Cc2ccc3[nH]ncc3c2)NC(=O)N2CCC(N3Cc4ccccc4NC3=O)CC2)CC1 (centres unmarked) [Example 40f] | > 1000 nM
3 | O=C(N[C@@H](CC(=O)N1CCC(N2Cc3ccccc3NC2=O)CC1)C(=O)N1CCC(N2CCCCC2)CC1)c1cc2ccccc2s1 [Example 126] | 100 to 1000 nM
4 | O=C(Nc1ccc(Cl)c(C(F)(F)F)c1)N[C@@H](CC(=O)N1CCC(N2Cc3ccccc3NC2=O)CC1)C(=O)N1CCC(N2CCCCC2)CC1 [Example 152] | 100 to 1000 nM
5 | C[C@@H](NC(=O)N[C@@H](CC(=O)N1CCC(N2Cc3ccccc3NC2=O)CC1)C(=O)N1CCC(N2CCCCC2)CC1)c1ccccc1 [Example 198] | 100 to 1000 nM
6 | CC(NC(=O)N[C@@H](CC(=O)N1CCC(N2Cc3ccccc3NC2=O)CC1)C(=O)N1CCC(N2CCCCC2)CC1)c1cccc2ccccc12 (some centres unmarked) [Example 199] | 10 to 100 nM
7 | O=C(Nc1ccccc1)N[C@@H](CC(=O)N1CCC(N2Cc3ccccc3NC2=O)CC1)C(=O)N1CCC(N2CCCCC2)CC1 [Example 143] | 100 to 1000 nM
8 | O=C(N[C@@H](CC(=O)N1CCC(N2Cc3ccccc3NC2=O)CC1)C(=O)N1CCC(N2CCCCC2)CC1)[C@@H]1C[C@H]1c1ccccc1 [Example 104] | 100 to 1000 nM
9 | O=C(Nc1ccc(Br)cc1)N[C@@H](CC(=O)N1CCC(N2Cc3ccccc3NC2=O)CC1)C(=O)N1CCC(N2CCCCC2)CC1 [Example 179] | 100 to 1000 nM
10 | O=C(N[C@@H](CC(=O)N1CCC(N2Cc3ccccc3NC2=O)CC1)C(=O)N1CCC(N2CCCCC2)CC1)c1cccc(Cl)c1Cl [Example 123] | 10 to 100 nM
11 | Cc1ccc(NC(=O)N[C@@H](CC(=O)N2CCC(N3Cc4ccccc4NC3=O)CC2)C(=O)N2CCC(N3CCCCC3)CC2)c(C)c1 [Example 185] | 100 to 1000 nM
12 | Cc1cc(CC(NC(=O)N2CCC(N3Cc4ccccc4NC3=O)CC2)C(=O)O[C@H](C)c2ccncc2)cc2cn[nH]c12 (stereo partly drawn) [Example 41e, 3-(7-Methyl-1H-indazol-5-yl)-2-{[4-(2-oxo-1,4-dihydro-2H-quinazolin-3-yl)-piperidine-1-carbonyl]-amino}-propionic acid (R)-1-pyridin-4-yl-ethyl ester] | < 10 nM
13 | COC(=O)c1cccc(NC(=O)N[C@@H](CC(=O)N2CCC(N3Cc4ccccc4NC3=O)CC2)C(=O)N2CCC(N3CCCCC3)CC2)c1 [Example 196] | 10 to 100 nM
14 | O=C(NC(Cc1ccc2[nH]ncc2c1)C(=O)N1CCN(Cc2ccc[nH]2)CC1)N1CCC(N2Cc3ccccc3NC2=O)CC1 (centres unmarked) [Example 40g] | > 1000 nM
15 | O=C(Cc1cccs1)N[C@@H](CC(=O)N1CCC(N2Cc3ccccc3NC2=O)CC1)C(=O)N1CCC(N2CCCCC2)CC1 [Example 117] | 100 to 1000 nM
16 | COC(=O)C(CN1Cc2cn[nH]c2C(C)(C)C1)NC(=O)N1CCC(N2Cc3ccccc3NC2=O)CC1 (racemic) [Example 55, (±)-3-(7,7-Dimethyl-1,4,6,7-tetrahydro-pyrazolo[4,3-c]pyridin-5-yl)-2-{[4-(2-oxo-1,4-dihydro-2H-quinazolin-3-yl)-piperidine-1-carbonyl]-amino}-propionic acid methyl ester] | 100 to 1000 nM
17 | O=C(Nc1ccccc1Oc1ccccc1)N[C@@H](CC(=O)N1CCC(N2Cc3ccccc3NC2=O)CC1)C(=O)N1CCC(N2CCCCC2)CC1 [Example 136] | 100 to 1000 nM
18 | Cc1ccc(C)c(NC(=O)N[C@@H](CC(=O)N2CCC(N3Cc4ccccc4NC3=O)CC2)C(=O)N2CCC(N3CCCCC3)CC2)c1 [Example 157] | 100 to 1000 nM
19 | Cc1cc(C)c(NC(=O)N[C@@H](CC(=O)N2CCC(N3Cc4ccccc4NC3=O)CC2)C(=O)N2CCC(N3CCCCC3)CC2)cc1C [Example 139] | 100 to 1000 nM
20 | O=C(Nc1ccc(F)c(F)c1F)N[C@@H](CC(=O)N1CCC(N2Cc3ccccc3NC2=O)CC1)C(=O)N1CCC(N2CCCCC2)CC1 [Example 168] | 100 to 1000 nM
21 | O=C(Nc1cc(Cl)nc(Cl)c1)N[C@@H](CC(=O)N1CCC(N2Cc3ccccc3NC2=O)CC1)C(=O)N1CCC(N2CCCCC2)CC1 [Example 164] | 100 to 1000 nM

Row | Structure (SMILES) | IC50
22 | O=C(Nc1ccc(Cl)cc1C(F)(F)F)N[C@@H](CC(=O)N1CCC(N2Cc3ccccc3NC2=O)CC1)C(=O)N1CCC(N2CCCCC2)CC1 [Example 188] | 100 to 1000 nM
23 | CCc1ccc(NC(=O)N[C@@H](CC(=O)N2CCC(N3Cc4ccccc4NC3=O)CC2)C(=O)N2CCC(N3CCCCC3)CC2)cc1 [Example 190] | 100 to 1000 nM
24 | COc1ccccc1NC(=O)N[C@@H](CC(=O)N1CCC(N2Cc3ccccc3NC2=O)CC1)C(=O)N1CCC(N2CCCCC2)CC1 [Example 149] | 10 to 100 nM
25 | O=C(N[C@@H](CC(=O)N1CCC(N2Cc3ccccc3NC2=O)CC1)C(=O)N1CCC(N2CCCCC2)CC1)c1ccc(O)cc1 [Example 100, (L)-N-{1-([1,4′]Bipiperidinyl-1′-carbonyl)-3-oxo-3-[4-(2-oxo-1,4-dihydro-2H-quinazolin-3-yl)-piperidin-1-yl]-propyl}-4-hydroxy-benzamide] | 100 to 1000 nM
26 | COc1ncc(CC(NC(=O)N2CCC(N3Cc4ccccc4NC3=O)CC2)C(=O)N2CCC(N3CCCCC3)CC2)cn1 (racemic) [Example 58, (±)-4-(2-Oxo-1,4-dihydro-2H-quinazolin-3-yl)-piperidine-1-carboxylic acid[2-[1,4′]bipiperidinyl-1′-yl-1-(2-methoxy-pyrimidin-5-ylmethyl)-2-oxo-ethyl]-amide] | > 1000 nM
27 | O=C(Nc1ccccc1Cl)N[C@@H](CC(=O)N1CCC(N2Cc3ccccc3NC2=O)CC1)C(=O)N1CCC(N2CCCCC2)CC1 [Example 172] | 10 to 100 nM
28 | O=C(N[C@@H](CC(=O)N1CCC(N2Cc3ccccc3NC2=O)CC1)C(=O)N1CCC(N2CCCCC2)CC1)Oc1ccccc1 [Example 130] | 100 to 1000 nM
29 | Cc1cc(CC(NC(=O)N2CCC(N3Cc4ccccc4NC3=O)CC2)C(=O)OC2CCN(C)CC2)cc2cn[nH]c12 (centres unmarked) [Example 41c, 3-(7-Methyl-1H-indazol-5-yl)-2-{[4-(2-oxo-1,4-dihydro-2H-quinazolin-3-yl)-piperidine-1-carbonyl]-amino}-propionic acid 1-methyl-piperidin-4-yl ester] | < 10 nM
30 | O=C(N[C@@H](CC(=O)N1CCC(N2Cc3ccccc3NC2=O)CC1)C(=O)N1CCC(N2CCCCC2)CC1)Oc1ccc(F)cc1 [Example 131] | 100 to 1000 nM
31 | O=C(N[C@@H](CC(=O)N1CCC(N2Cc3ccccc3NC2=O)CC1)C(=O)N1CCC(N2CCCCC2)CC1)c1cccc([N+](=O)[O-])c1 [Example 113] | 100 to 1000 nM
32 | O=C(OCc1ccccc1C(=O)N[C@@H](CC(=O)N1CCC(N2Cc3ccccc3NC2=O)CC1)C(=O)N1CCC(N2CCCCC2)CC1)c1ccccc1 [Example 118] | 100 to 1000 nM
33 | O=C(Nc1ccc2ccccc2c1)N[C@@H](CC(=O)N1CCC(N2Cc3ccccc3NC2=O)CC1)C(=O)N1CCC(N2CCCCC2)CC1 [Example 135] | 100 to 1000 nM
34 | O=C(N[C@@H](CC(=O)N1CCC(N2Cc3ccccc3NC2=O)CC1)C(=O)N1CCC(N2CCCCC2)CC1)N[C@@H]1C[C@H]1c1ccccc1 [Example 154] | 100 to 1000 nM
35 | O=C(N[C@@H](CC(=O)N1CCC(N2Cc3ccccc3NC2=O)CC1)C(=O)N1CCC(N2CCCCC2)CC1)c1cc[nH]n1 [Example 101, (L)-1H-Pyrazole-3-carboxylic acid{1-([1,4′]bipiperidinyl-1′-carbonyl)-3-oxo-3-[4-(2-oxo-1,4-dihydro-2H-quinazolin-3-yl)-piperidin-1-yl]-propyl}-amide] | > 1000 nM
36 | O=C(N[C@@H](CC(=O)N1CCC(N2Cc3ccccc3NC2=O)CC1)C(=O)N1CCC(N2CCCCC2)CC1)c1cccc(OC(F)(F)F)c1 [Example 121] | 100 to 1000 nM
37 | O=C(N[C@@H](CC(=O)N1CCC(N2Cc3ccccc3NC2=O)CC1)C(=O)N1CCC(N2CCCCC2)CC1)c1cccs1 [Example 116] | 100 to 1000 nM
38 | COc1cc(NC(=O)N[C@@H](CC(=O)N2CCC(N3Cc4ccccc4NC3=O)CC2)C(=O)N2CCC(N3CCCCC3)CC2)cc(OC)c1 [Example 165] | 100 to 1000 nM
39 | Cc1cc(CC(NC(=O)N2CCC3(CC2)OC(=O)Nc2ccccc23)C(=O)NCc2ccncc2)cc2cn[nH]c12 (racemic) [Example 30, (±)-1′,2′-Dihydro-2′-oxospiro-[4H-3′,1-benzoxazine-4,4′-piperidine-1-carboxylic acid {2-(7-methyl-1H-indazol-5-yl)-1-[(pyridin-4-ylmethyl)-carbamoyl]-ethyl}-amide] | 10 to 100 nM
40 | COC(=O)C(CC(=O)N1CCC2(CC1)OC(=O)Nc1ccccc12)Cc1cc(C)c2[nH]ncc2c1 (racemic) [Example 66, (±)-2-(7-Methyl-1H-indazol-5-ylmethyl)-4-oxo-4-[1′,2′-dihydro-2′-oxospiro-[4H-3′,1-benzoxazine-4,4′-piperidinyl]-butyric acid methyl ester] | 100 to 1000 nM
41 | O=C(NCc1ccccc1)N[C@@H](CC(=O)N1CCC(N2Cc3ccccc3NC2=O)CC1)C(=O)N1CCC(N2CCCCC2)CC1 [Example 145] | 100 to 1000 nM
